Columns and labels:
Experiment in all cases: biochemical
Type in all cases: binding
CRK = molecular target: T1, CRK (Homo sapiens, UniProt P46108); conditions: for remaining activity at 10 µM: primary screen, read-out: percent of DMSO vehicle control
T1 construct: the DNA-tagged SH2 domain concentrations used in this study were <0.1 nM; made in house; host or cells: HEK293 (transient transfection; unpurified extract)

CSK = molecular target: T2, CSK (Homo sapiens, UniProt P41240); conditions: for percent of DMSO vehicle control: primary screen, 10 μM
T2 construct: the DNA-tagged SH2 domain concentrations used in this study were <0.1 nM; made in house; host or cells: HEK293 (transient transfection; unpurified extract)
T2 sequence (P41240 82-171 limits assumed): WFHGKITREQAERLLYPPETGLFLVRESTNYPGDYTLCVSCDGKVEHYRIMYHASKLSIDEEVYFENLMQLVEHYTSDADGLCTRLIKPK

FGR = molecular target: T3, FGR (Homo sapiens, UniProt P09769); conditions: for remaining activity at 10 µM: primary screen, read-out: percent of DMSO vehicle control
T3 construct: the DNA-tagged SH2 domain concentrations used in this study were <0.1 nM; made in house; host or cells: HEK293 (transient transfection; unpurified extract)

FYN = molecular target: T4, FYN (Homo sapiens, UniProt P06241); conditions: primary screen, 10 μM; read-out: percent of DMSO vehicle control
T4 construct: the DNA-tagged SH2 domain concentrations used in this study were <0.1 nM; made in house; host or cells: HEK293 (transient transfection; unpurified extract)

GRB7 = molecular target: T5, GRB7 (Homo sapiens, UniProt Q14451); conditions: primary screen, 10 μM; read-out: percent of DMSO vehicle control
T5 construct: the DNA-tagged SH2 domain concentrations used in this study were <0.1 nM; made in house; host or cells: HEK293 (transient transfection; unpurified extract)

HCK = molecular target: T6, HCK (Homo sapiens, UniProt P08631); conditions: primary screen, 10 μM; read-out: percent of DMSO vehicle control
T6 construct: the DNA-tagged SH2 domain concentrations used in this study were <0.1 nM; made in house; host or cells: HEK293 (transient transfection, unpurified extract)

NCK1 = molecular target: T7, NCK1 (Homo sapiens, UniProt P16333); conditions: for remaining activity at 10 µM: primary screen, read-out: percent of DMSO vehicle control
T7 construct: the DNA-tagged SH2 domain concentrations used in this study were <0.1 nM; made in house; host or cells: HEK293 (transient transfection, unpurified extract)

PIK3R2(SH2dom.N-term.) = molecular target: T8, PIK3R2(SH2dom.N-term.) (Homo sapiens, UniProt O00459); conditions: primary screen, 10 μM; read-out: percent of DMSO vehicle control
T8 construct: SH2dom.N-term. denotes SH2 domain closest to N-terminus of protein; made in house; host or cells: HEK293 (transient transfection, unpurified extract)

PLCG1(SH2dom.N-term.) = molecular target: T9, PLCG1(SH2dom.N-term.) (Homo sapiens, UniProt P19174); conditions: for Kd: dose-response, read-out: KD; for remaining activity at 10 µM: primary screen, read-out: percent of DMSO vehicle control
T9 construct: SH2dom.N-term. denotes SH2 domain closest to N-terminus of protein; made in house; host or cells: HEK293 (transient transfection, unpurified extract)
T9 sequence (P19174 550-657 limits assumed): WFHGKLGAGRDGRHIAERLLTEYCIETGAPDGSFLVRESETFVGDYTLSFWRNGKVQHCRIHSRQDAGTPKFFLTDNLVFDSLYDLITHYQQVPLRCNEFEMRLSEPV

SH2D6 = molecular target: T10, SH2D6 (Homo sapiens, UniProt Q7Z4S9); conditions: primary screen, 10 μM; read-out: percent of DMSO vehicle control
T10 construct: made in house; host or cells: HEK293 (transient transfection), unpurified extract

SHIP1 = molecular target: T11, SHIP1 (Homo sapiens, UniProt Q92835); conditions: for percent of DMSO vehicle control: primary screen, 10 μM
T11 construct: made in house; host or cells: HEK293 (transient transfection), unpurified extract
T11 sequence (Q92835 1-1189): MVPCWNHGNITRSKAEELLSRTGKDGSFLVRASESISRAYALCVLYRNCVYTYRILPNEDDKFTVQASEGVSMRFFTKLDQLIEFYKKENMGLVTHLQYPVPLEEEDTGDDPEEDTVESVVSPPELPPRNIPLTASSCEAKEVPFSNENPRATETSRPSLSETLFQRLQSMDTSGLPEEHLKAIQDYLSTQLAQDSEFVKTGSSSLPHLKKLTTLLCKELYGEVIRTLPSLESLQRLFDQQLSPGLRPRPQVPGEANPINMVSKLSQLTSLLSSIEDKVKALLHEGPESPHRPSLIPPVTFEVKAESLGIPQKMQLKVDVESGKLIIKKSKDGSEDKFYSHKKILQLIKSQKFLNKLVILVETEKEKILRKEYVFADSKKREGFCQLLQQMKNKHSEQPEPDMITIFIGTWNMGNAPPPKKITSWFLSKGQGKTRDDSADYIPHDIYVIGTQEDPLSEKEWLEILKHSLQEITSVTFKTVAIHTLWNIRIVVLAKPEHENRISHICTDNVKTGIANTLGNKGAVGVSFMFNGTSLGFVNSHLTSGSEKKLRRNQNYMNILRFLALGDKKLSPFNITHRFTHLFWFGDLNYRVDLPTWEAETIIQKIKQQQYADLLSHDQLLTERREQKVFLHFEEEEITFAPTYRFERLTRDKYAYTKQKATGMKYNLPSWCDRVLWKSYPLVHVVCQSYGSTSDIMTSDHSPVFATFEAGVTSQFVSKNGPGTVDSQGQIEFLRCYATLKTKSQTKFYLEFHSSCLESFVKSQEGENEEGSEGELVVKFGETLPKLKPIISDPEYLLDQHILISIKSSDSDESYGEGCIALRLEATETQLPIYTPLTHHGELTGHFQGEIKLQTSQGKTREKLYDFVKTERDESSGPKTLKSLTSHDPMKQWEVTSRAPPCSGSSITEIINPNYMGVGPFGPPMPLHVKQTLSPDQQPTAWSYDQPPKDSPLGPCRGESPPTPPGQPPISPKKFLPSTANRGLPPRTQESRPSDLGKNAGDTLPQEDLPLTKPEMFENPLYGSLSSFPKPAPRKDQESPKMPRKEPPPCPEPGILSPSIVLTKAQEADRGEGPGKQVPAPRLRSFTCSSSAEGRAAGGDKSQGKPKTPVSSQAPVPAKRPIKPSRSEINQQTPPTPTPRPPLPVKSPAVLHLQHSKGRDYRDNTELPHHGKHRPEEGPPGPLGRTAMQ

SLAP2 = molecular target: T12, SLAP2 (Homo sapiens, UniProt Q9H6Q3); conditions: primary screen, 10 μM; read-out: percent of DMSO vehicle control
T12 construct: made in house; host or cells: HEK293 (transient transfection), unpurified extract
T12 sequence (Q9H6Q3 1-261): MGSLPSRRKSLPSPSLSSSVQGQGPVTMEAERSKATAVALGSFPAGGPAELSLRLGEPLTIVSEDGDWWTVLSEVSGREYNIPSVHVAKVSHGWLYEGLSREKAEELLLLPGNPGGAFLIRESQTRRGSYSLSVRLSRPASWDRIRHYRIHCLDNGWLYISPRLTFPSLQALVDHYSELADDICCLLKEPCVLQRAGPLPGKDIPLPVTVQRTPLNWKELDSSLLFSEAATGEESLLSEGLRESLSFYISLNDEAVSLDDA

SRC = molecular target: T13, SRC (Homo sapiens, UniProt P12931); conditions: primary screen, 10 μM; read-out: percent of DMSO vehicle control
T13 construct: made in house; host or cells: HEK293 (transient transfection), unpurified extract

STAT2 = molecular target: T14, STAT2 (Homo sapiens, UniProt P52630); conditions: for remaining activity at 10 µM: primary screen, read-out: percent of DMSO vehicle control; for Kd: dose-response, read-out: KD
T14 construct: made in house; host or cells: HEK293 (transient transfection), unpurified extract

TNS1 = molecular target: T15, TNS1 (Homo sapiens, UniProt Q9HBL0); conditions: primary screen, 10 μM; read-out: percent of DMSO vehicle control
T15 construct: made in house; host or cells: HEK293 (transient transfection), unpurified extract
T15 sequence (Q9HBL0 whole entry): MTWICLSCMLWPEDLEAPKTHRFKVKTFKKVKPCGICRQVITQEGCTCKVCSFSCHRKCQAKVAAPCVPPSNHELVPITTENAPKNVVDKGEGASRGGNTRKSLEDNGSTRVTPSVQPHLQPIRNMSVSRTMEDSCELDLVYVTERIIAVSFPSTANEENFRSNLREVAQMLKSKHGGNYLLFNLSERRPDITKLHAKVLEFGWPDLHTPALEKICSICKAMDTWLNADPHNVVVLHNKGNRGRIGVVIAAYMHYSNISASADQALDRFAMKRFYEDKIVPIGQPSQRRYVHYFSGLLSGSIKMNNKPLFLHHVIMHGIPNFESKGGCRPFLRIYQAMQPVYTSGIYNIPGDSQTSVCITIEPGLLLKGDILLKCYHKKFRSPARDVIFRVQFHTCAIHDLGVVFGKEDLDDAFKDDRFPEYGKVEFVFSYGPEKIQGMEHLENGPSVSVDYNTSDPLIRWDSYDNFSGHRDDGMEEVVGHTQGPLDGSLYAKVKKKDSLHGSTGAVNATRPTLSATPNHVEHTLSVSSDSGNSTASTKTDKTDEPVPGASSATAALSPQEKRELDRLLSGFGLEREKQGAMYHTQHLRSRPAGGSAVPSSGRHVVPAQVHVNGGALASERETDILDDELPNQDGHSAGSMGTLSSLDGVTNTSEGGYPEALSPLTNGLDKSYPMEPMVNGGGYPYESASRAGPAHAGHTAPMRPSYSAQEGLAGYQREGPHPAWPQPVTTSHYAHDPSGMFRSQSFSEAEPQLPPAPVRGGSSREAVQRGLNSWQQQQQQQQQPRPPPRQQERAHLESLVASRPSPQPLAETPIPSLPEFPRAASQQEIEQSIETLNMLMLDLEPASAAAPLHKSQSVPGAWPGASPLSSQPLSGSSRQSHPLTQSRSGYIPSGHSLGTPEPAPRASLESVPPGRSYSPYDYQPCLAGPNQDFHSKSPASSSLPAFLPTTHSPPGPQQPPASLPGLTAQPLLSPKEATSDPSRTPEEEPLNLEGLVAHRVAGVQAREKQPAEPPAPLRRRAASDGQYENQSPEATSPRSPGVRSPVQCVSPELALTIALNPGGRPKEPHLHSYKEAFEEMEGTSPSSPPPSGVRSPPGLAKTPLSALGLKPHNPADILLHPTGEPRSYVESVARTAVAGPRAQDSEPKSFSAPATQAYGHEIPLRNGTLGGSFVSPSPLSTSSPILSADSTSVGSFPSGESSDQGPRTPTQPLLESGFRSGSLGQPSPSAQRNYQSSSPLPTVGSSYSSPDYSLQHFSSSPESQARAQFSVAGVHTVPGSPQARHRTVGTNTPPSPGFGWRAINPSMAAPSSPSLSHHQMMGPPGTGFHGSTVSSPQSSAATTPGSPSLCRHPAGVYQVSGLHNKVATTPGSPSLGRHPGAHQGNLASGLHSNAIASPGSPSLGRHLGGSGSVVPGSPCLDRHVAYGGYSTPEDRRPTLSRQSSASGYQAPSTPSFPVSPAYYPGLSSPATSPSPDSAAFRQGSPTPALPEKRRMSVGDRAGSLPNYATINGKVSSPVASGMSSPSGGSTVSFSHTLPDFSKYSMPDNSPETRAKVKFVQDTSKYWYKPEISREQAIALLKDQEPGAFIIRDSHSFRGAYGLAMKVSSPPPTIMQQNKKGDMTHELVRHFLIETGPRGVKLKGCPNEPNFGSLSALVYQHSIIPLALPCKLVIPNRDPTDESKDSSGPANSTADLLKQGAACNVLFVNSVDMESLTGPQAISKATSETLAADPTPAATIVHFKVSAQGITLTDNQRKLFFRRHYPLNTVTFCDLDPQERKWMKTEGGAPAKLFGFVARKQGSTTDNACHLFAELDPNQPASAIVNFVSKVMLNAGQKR

T8 sequence (O00459 330-425 limits assumed): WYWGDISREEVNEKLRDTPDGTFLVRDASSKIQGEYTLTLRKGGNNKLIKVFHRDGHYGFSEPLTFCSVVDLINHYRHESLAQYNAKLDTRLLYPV
T5 sequence (Q14451 431-527 limits assumed): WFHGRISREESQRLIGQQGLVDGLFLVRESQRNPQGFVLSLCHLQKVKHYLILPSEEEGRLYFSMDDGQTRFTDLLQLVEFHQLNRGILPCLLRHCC
T14 sequence (P52630 whole entry): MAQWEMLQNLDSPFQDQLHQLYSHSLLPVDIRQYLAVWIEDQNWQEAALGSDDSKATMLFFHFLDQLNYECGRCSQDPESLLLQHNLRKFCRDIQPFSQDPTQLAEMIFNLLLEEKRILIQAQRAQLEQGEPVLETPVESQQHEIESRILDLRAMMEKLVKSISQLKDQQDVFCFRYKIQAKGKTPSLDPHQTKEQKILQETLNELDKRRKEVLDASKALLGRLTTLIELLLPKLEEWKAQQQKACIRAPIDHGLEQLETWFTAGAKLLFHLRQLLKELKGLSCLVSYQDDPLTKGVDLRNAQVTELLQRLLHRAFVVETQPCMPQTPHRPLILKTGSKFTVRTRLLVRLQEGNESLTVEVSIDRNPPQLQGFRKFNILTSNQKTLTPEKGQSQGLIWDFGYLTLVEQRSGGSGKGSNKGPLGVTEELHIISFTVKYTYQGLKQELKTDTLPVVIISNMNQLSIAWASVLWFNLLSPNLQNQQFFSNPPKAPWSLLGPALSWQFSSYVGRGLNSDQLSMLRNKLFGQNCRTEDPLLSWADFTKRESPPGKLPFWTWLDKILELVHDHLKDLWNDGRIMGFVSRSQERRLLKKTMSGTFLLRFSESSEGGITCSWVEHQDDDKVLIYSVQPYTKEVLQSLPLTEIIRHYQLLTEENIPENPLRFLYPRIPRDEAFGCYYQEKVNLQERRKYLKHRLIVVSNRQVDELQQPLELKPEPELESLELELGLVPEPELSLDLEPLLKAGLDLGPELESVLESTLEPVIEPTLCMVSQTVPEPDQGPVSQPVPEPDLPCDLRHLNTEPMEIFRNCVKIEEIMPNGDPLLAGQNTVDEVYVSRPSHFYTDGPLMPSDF
T13 sequence (P12931 whole entry): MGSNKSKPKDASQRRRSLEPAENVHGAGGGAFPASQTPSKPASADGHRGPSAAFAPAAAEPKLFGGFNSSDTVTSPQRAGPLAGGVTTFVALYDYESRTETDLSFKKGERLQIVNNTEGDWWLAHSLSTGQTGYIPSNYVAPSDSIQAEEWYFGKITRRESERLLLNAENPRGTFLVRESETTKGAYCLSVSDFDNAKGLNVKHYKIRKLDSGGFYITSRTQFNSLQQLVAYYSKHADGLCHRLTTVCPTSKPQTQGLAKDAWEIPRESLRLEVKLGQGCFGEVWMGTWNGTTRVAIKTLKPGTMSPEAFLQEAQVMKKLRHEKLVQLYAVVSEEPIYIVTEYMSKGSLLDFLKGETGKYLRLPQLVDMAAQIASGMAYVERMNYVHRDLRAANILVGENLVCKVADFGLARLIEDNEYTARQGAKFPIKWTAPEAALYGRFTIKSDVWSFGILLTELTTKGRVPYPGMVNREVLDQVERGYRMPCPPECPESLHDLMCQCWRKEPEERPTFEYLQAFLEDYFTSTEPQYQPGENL
T4 sequence (P06241 149-246 limits assumed): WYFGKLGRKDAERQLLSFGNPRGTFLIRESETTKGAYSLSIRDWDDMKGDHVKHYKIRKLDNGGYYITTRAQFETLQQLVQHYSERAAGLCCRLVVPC
T10 sequence (Q7Z4S9 whole entry): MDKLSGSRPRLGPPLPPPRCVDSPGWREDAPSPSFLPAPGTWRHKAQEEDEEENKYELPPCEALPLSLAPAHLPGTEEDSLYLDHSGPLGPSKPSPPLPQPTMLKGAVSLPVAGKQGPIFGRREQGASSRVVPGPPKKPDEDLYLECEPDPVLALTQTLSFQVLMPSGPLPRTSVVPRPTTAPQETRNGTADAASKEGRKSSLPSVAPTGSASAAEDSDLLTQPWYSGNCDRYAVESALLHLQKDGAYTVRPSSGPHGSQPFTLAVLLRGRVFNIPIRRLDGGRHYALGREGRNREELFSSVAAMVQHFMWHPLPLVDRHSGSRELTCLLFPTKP
T3 sequence (P09769 144-241 limits assumed): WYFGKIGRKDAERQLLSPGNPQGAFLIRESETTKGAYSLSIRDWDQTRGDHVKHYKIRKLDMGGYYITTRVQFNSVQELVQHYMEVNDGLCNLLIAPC
T6 sequence (P08631 144-241 limits assumed): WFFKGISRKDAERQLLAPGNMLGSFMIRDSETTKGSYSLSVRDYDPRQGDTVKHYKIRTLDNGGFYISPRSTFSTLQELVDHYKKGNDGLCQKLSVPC
T1 sequence (P46108 13-118 limits assumed): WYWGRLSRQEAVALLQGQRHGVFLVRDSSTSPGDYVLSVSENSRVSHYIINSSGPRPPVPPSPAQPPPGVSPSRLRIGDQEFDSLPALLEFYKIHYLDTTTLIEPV

In the case of `C/C(=C\C(=O)N[C@H](C(=O)N1CCC[C@H]1C(=O)N(c1ccccc1)c1ccc(I)cc1)C(C)(C)C)c1ccc(OP(=O)(O)O)cc1` [STAT6-IN-1], the Kd (CRK; dose-response, read-out: KD) is reported as 2.004 ± 0.0059 µM, the remaining activity at 10 µM (CRK) is reported as 34.5 ± 1.8% and the Kd (CSK; dose-response, read-out: KD) is reported as 3.05 ± 0.49 µM. The “percent of DMSO vehicle control” value (CSK) was 26.3±0.8%, the Kd (FGR; dose-response, read-out: KD) was 2.3 ± 0.55 µM and the remaining activity at 10 µM (FGR) was 20.7 ± 23.8%. For the same compound, the remaining activity at 10 µM (FYN) was 48.2 ± 2.1%, the remaining activity at 10 µM (GRB7) was 47.7 ± 4.2% and the remaining activity at 10 µM (HCK) was 48.8 ± 5.2%. The KD (NCK1; dose-response) was “No Hit”, the remaining activity at 10 µM (NCK1) was 10.6 ± 2.6% and the remaining activity at 10 µM (PIK3R2(SH2dom.N-term.)) was 48.2 ± 5.7%. It also gave a Kd (PLCG1(SH2dom.N-term.)) of 0.89 ± 0.72 µM, a remaining activity at 10 µM (PLCG1(SH2dom.N-term.)) of 0.3 ± 0.1% and a remaining activity at 10 µM (SH2D6) of 67.5 ± 5.3%. For the same compound, the Kd (SHIP1; dose-response, read-out: KD) was 4.4 ± 0.42 µM, the “percent of DMSO vehicle control” value (SHIP1) was 4.4±1.3% and the remaining activity at 10 µM (SLAP2) was 55.8 ± 2.8%. For the same compound, the remaining activity at 10 µM (SRC) was 53.3 ± 8.1%, the remaining activity at 10 µM (STAT2) was 35.1 ± 16.6% and the remaining activity at 10 µM (TNS1) was 87.6 ± 10%.
For `CC(C)(C)[C@H](NC(=O)/C=C/c1ccc(OP(=O)(O)O)cc1)C(=O)N1CCC[C@H]1C(=O)N(c1ccccc1)c1ccc(I)cc1` [STAT6-IN-3], the remaining activity at 10 µM (CRK) was 80.4 ± 9.5%, the “percent of DMSO vehicle control” value (CSK) was 65.2±5.7% and the KD (FGR; dose-response) was “No Hit”. For the same compound, the remaining activity at 10 µM (FGR) was 32.1 ± 40.1%, the remaining activity at 10 µM (FYN) was 51.8 ± 33.2% and the remaining activity at 10 µM (GRB7) was 81.2 ± 4.6%. It also gave a remaining activity at 10 µM (HCK) of 77.4 ± 4.3%, a remaining activity at 10 µM (NCK1) of 85.1 ± 10.2% and a remaining activity at 10 µM (PIK3R2(SH2dom.N-term.)) of 88.4 ± 18.2%. For the same compound, the Kd (PLCG1(SH2dom.N-term.)) was 3.7 ± 0.33 µM, the remaining activity at 10 µM (PLCG1(SH2dom.N-term.)) was 32.7 ± 14.4% and the remaining activity at 10 µM (SH2D6) was 97.5 ± 15.9%. The “percent of DMSO vehicle control” value (SHIP1) was 53.7±3.2%, the remaining activity at 10 µM (SLAP2) was 92.1 ± 16.6% and the remaining activity at 10 µM (SRC) was 67 ± 21%. It also gave a Kd (STAT2) of 0.51 ± 0.083 µM, a remaining activity at 10 µM (STAT2) of 60.3 ± 12.5% and a remaining activity at 10 µM (TNS1) of 88.4 ± 24.5%.
For `O=C(COc1ccc2cc(C(=O)Nc3ccccc3)ccc2c1)NCc1ccc(OP(=O)(O)O)c(OP(=O)(O)O)c1` [Stafib-1], the remaining activity at 10 µM (CRK) was 90.2 ± 5.9%, the “percent of DMSO vehicle control” value (CSK) was 111.7±5.5% and the KD (FGR; dose-response) was “No Hit”. For the same compound, the remaining activity at 10 µM (FGR) was 34.3%, the remaining activity at 10 µM (FYN) was 92.1 ± 35.5% and the remaining activity at 10 µM (GRB7) was 57.9 ± 22.2%. For the same compound, the remaining activity at 10 µM (HCK) was 77 ± 19.3%, the remaining activity at 10 µM (NCK1) was 53.7 ± 39.3% and the remaining activity at 10 µM (PIK3R2(SH2dom.N-term.)) was 97.2 ± 21.5%. For the same compound, the remaining activity at 10 µM (PLCG1(SH2dom.N-term.)) was 82.6 ± 20.2%, the remaining activity at 10 µM (SH2D6) was 88.5 ± 5.5% and the “percent of DMSO vehicle control” value (SHIP1) was 61.1±7.3%. It also gave a remaining activity at 10 µM (SLAP2) of 90.4 ± 6.1%, a remaining activity at 10 µM (SRC) of 90.6 ± 5.2% and a Kd (STAT2) of 9.3 ± 4.3 µM. It also gave a remaining activity at 10 µM (STAT2) of 153% and a remaining activity at 10 µM (TNS1) of 132%.

— PMC12951562, “SH2scan: Mapping SH2 Domain-Ligand Binding Selectivity for Inhibitors and Degraders” (Journal of Medicinal Chemistry, 2026)
